# Data from patent US8779141B2, “Viral inhibitors” (Gilead Sciences, Inc., priority 2002, dated 2014).
# Where two headings read alike, the source gives them in different places.
# How the values were obtained:
# BVDV-1 (strain PE515) = assay: Anti-BVDV assay, virus-induced cytopathic effect in MDBK cells (MTS); assay type: cell-based, Bovine Viral Diarrhea Virus
# Experimental: (§1) Madin-Darbey Bovine Kidney (MDBK) cells were maintained in Dulbecco's modified Eagle medium (DMEM) supplemented with BVDV-free 5% fetal calf serum (DMEME-FCS) at 37° C. in a humidified, 5% CO2 atmosphere. BVDV-1 (strain PE515) was used to assess the antiviral activity in MDBK cells. Vero cells were maintained in the same way as MDBK cells. Vero cells were infected with Coxsackie B3 virus (strain Nancy).
# Ninety-six-well cell culture plates were seeded with MDBK cells in DMEM-FCS so that cells reached 24 hr later confluency. Then medium was removed and serial 5-fold dilutions of the test compounds were added in a total volume of 100 ul, after which the virus inoculum (100 ul) was added to each well. […] Uninfected cells and cells receiving virus without compound were included in each assay plate. After 5 days, medium was removed and 90 μl of DMEM-FCS and 10 ul of MTS/PMS solution (Promega) was added to each well. Following a 2 hr incubation period at 37° C. the optical density of the wells was read at 498 nm in a microplate reader.
# MDBK cells = assay: Cytostatic effect on exponentially growing MDBK cells (MTS); assay type: cell-based, Bovine; conditions: for MTC: Table 10, mean toxic concentration, reduces growth of exponentially growing MDBK cells by 50%
# Experimental: (§2) Madin-Darbey Bovine Kidney (MDBK) cells were maintained in Dulbecco's modified Eagle medium (DMEM) supplemented with BVDV-free 5% fetal calf serum ([…]) at 37° C. in a humidified, 5% CO2 atmosphere. […] Vero cells were maintained in the same way as MDBK cells. […] The effect of the drugs on exponentially growing MDBK cells was assessed as follows. Cells were seeded at a density of 5000 cell/well in 96 well plates in MEM medium (Gibco) supplemented with 10% fetal calf serum, 2 mM L-glutamine (Life Technologies) and bicarbonate (Life Technologies). […] Cultures were then again further incubated for 3 days after which the effect on cell growth was quantified by means of the MTS method (Promega).
# [1] = system: Coxsackie B3 virus (strain Nancy); assay: Anti-coxsackie virus assay, cytopathic effect in Vero cells (MTS); assay type: cell-based; conditions: Enterovirus B, Table 13, reduction of virus (CBV-3 Nancy strain)-induced cytopathic effect in Vero cells by 50%
# Experimental: as §1
# (§3) Ninety-six-well cell culture plates were seeded with Vero cells in DMEM medium containing 10 fetal calf serum (FCS) so that cells reached confluency 24-48 hr later. Medium was then removed and serial 5-fold dilutions of the test compounds were added in a total volume of 100 ul, after which the virus inoculum (100 μl) was added to each well. […] Uninfected cells and cells receiving virus without compound were included in each asay plate. After 5 days, the medium was removed and 90 μl of DMEM-FCS and 10 μl of MTS/PMS solution (Promega) was added to each well. Following a 2 hr incubation period at 37° C., the optical density of the wells was read at 498 nm in a microplate reader. The 50% effective concentration (EC50) value was defined as the concentration of compound that protects 50% of the cell monolayer from virus-induced cytopathic effect.
# Vero cells = assay: Metabolism of confluent Vero cells (MTS); assay type: cell-based; conditions: Table 13; reduction of metabolism of confluent Vero cells by 50%, MTS method
# Experimental: as §1, §3
# [2] = system: HCV replicon in Huh-5-2 cells; assay: Anti-HCV replicon assay, luciferase activity in Huh-5-2 cells; assay type: cell-based; conditions: Hepatitis C virus, Table 11, inhibition of luciferase activity in the replicon system by 50%
# Experimental: (§4) Cells were seeded at a density of 7000 cells per well in 96 well View Plate™ (Packard) in medium containing the same components as described above, except for G418. Cells were allowed to adhere and proliferate for 24 hr. At that time, culture medium was removed and serial dilutions of the test compounds were added in culture medium lacking G418. Interferon alfa 2a (500 IU) was included as a positive control. Plates were further incubated at 37° C. and 5% CO2 for 72 hours. Replication of the HCV replicon in Huh-5 cells results in luciferase activity in the cells. Luciferase activity is measured by adding 50 μl of 1× Glo-lysis buffer (Promega) for 15 minutes followed by 50 ul of the Steady-Glo Luciferase assay reagent (Promega). Luciferase activity is measured with a luminometer and the signal in each individual well is expressed as a percentage of the untreated cultures. […] Instead the density of the culture is measured by means of the MTS method (Promega).
# [3] = Proliferation of exponentially growing Huh-5-2 cells (MTS); assay type: cell-based; conditions: human, exponentially growing Huh-5-2 cells (HCV replicon cell line); Table 11; inhibition of proliferation of exponentially growing Huh-5-2 cells by 50%
# Experimental: as §4
# [4] = Cytostatic effect on exponentially growing MDBK cells (MTS); assay type: cell-based, Bovine; conditions: bovine; Table 9; reduction of growth of exponentially growing MDBK cells by 50%; mean of 2-5 determinations
# Experimental: as §2
# [5] = Bovine viral diarrhea virus isolates and strains, Table 10, reduction of virus induced cytopathic effect in MDBK cells by 50%, read-out: EC50
# [6] = Bovine viral diarrhea virus isolates and strains, Table 9, reduction of virus induced cytopathic effect in MDBK cells by 50%, BVDV strain PE515, mean of 2-5 determinations, read-out: EC50
Structure (SMILES),EC50 [1],TC50 (Vero cells),CC50 at 3 days [4],EC50 (BVDV-1 (strain PE515); [6]),other results
"c1ccc(-c2ccc(Cn3ccc4nc(-c5cccc6ccccc56)nc-4c3)cc2)cc1 [GPJN-115, 5-([1,1′-Biphenyl]-4-ylmethyl)-2-(1-naphthalenyl)-5H-imidazo[4,5-c]pyridine]",–,–,–,–,EC50 (BVDV-1 (strain PE515); [5]): 0.24 µg/mL; MTC (MDBK cells): 4 µg/mL
"Cc1cn(Cc2ccc(Br)cc2)cc2nc(-c3ccccc3)nc1-2 [GPJN-104, 5-[(4-Bromophenyl)methyl]-7-methyl-2-phenyl-5H-imidazo[4,5-c]pyridine]",–,–,–,–,EC50 (BVDV-1 (strain PE515); [5]): 0.27 µg/mL; MTC (MDBK cells): 20 µg/mL
"Fc1ccc(Cn2ccc3nc(-c4c(F)ccc(F)c4F)nc-3c2)c(F)c1 [GPC-12, 5-[(2,4-Difluorophenyl)methyl]-2-(2,3,6-trifluorophenyl)-5H-imidazo[4,5-c]pyridine]",3.6 µg/mL,>100 µg/mL,–,–,–
"FC(F)(F)c1cccc(-c2nc3ccn(Cc4ccc(Br)cc4)cc-3n2)c1 [GPJN-87, 5-[(4-Bromophenyl)methyl]-2-[3-(trifluoromethyl)phenyl]-5H-imidazo[4,5-c]pyridine]",–,–,–,–,EC50 [2]: < 0.62 µg/mL; CC50 at 72 hours [3]: 20 µg/mL
"Cc1cccc(-c2nc3ccn(Cc4ccc(Br)cc4)cc-3n2)c1 [GPJN-60, 5-[(4-Bromophenyl)methyl]-2-(3-methylphenyl)-5H-imidazo[4,5-c]pyridine]",6.1 µg/mL,>100 µg/mL,> 77 µg/mL,–,"EC50 (BVDV-1 (strain PE515); Bovine viral diarrhea virus isolates and strains, MDBK): 0.015 µg/mL"
"Clc1cn(Cc2ccc(Br)cc2)cc2nc(-c3ccccc3)nc1-2 [GPJN-103, 5-[(4-Bromophenyl)methyl]-7-chloro-2-phenyl-5H-imidazo[4,5-c]pyridine]",–,–,–,–,EC50 (BVDV-1 (strain PE515); [5]): 0.061 µg/mL; MTC (MDBK cells): 20 µg/mL
"c1ccc(-c2ccc(Cn3ccc4nc(-c5ccccc5)nc-4c3)cc2)cc1 [GPJN-32, 5-([1,1′-Biphenyl]-4-ylmethyl)-2-phenyl-5H-imidazo[4,5-c]pyridine]",6.5 µg/mL,69 µg/mL,20 µg/mL,0.027 µg/mL,–
"Fc1cccc(-c2nc3ccn(Cc4ccc(Br)cc4)cc-3n2)c1 [GPJN-50, 5-[(4-Bromophenyl)methyl]-2-(3-fluorophenyl)-5H-imidazo[4,5-c]pyridine]",8.47 µg/mL,>100 µg/mL,> 100 µg/mL,0.021 µg/mL,–
"Brc1ccc(Cn2ccc3nc(CSc4ccccc4)nc-3c2)cc1 [GPJN-83, 5-[(4-Bromophenyl)methyl]-2-[(phenylthio)methyl]-5H-imidazo[4,5-c]pyridine]",–,–,–,–,EC50 [2]: < 0.62 µg/mL; CC50 at 72 hours [3]: 8 µg/mL
"Fc1cccc(F)c1-c1nc2ccn(Cc3ccc(Cl)c(Cl)c3)cc-2n1 [GPC-10, 5-[(3,4-Dichlorophenyl)methyl]-2-(2,6-difluorophenyl)-5H-imidazo[4,5-c]pyridine]",1.81 µg/mL,59 µg/mL,4 µg/mL,0.064 µg/mL,–
"Fc1cccc(-c2nc3ccn(Cc4ccc(F)cc4F)cc-3n2)c1 [GPC-11, 5-[(2,4-Difluorophenyl)methyl]-2-(3-fluorophenyl)-5H-imidazo[4,5-c]pyridine]",4.76 µg/mL,>100 µg/mL,> 100 µg/mL,0.56 µg/mL,–
"Brc1ccc(Cn2ccc3nc(-c4cccc5ccccc45)nc-3c2)cc1 [GPJN-62, 5-[(4-Bromophenyl)methyl]-2-(1-naphthalenyl)-5H-imidazo[4,5-c]pyridine]",–,–,9.4 µg/mL,0.12 µg/mL,EC50 [2]: < 0.62 µg/mL; CC50 at 72 hours [3]: 6 µg/mL
"COc1cccc(-c2nc3ccn(Cc4ccc(Br)cc4)cc-3n2)c1 [GPJN-64, 5-[(4-Bromophenyl)methyl]-2-(3-methoxyphenyl)-5H-imidazo[4,5-c]pyridine]",12 µg/mL,>42 µg/mL,> 100 µg/mL,0.026 µg/mL,–
"Fc1ccc(Cn2ccc3nc(-c4c(F)cccc4F)nc-3c2)c(F)c1 [GPJN-40, 2-(2,6-Difluorophenyl)-5-[(2,4-difluorophenyl)methyl]-5H-imidazo[4,5-c]pyridine]",8.95 µg/mL,>100 µg/mL,> 100 µg/mL,0.25 µg/mL,–
"c1ccc(-c2nc3ccn(Cc4cccc5ccccc45)cc-3n2)cc1 [GPJN-36, 5-(1-Naphthalenylmethyl)-2-phenyl-5H-imidazo[4,5-c]pyridine]",–,–,–,–,"EC50 (BVDV-1 (strain PE515); Table 9, reduction of virus induced cytopathic effect in MDBK cells by 50%, BVDV strain PE515, mean of 2-5 determinations): 0.019 µg/mL; CC50 (MDBK cells; Table 9, reduction of growth of exponentially growing MDBK cells by 50%, mean of 2-5 determinations): 24 µg/mL"
"Clc1c2nc(-c3ccccc3)nc-2ccn1Cc1ccc(Br)cc1 [GPJN-96, 5-[(4-Bromophenyl)methyl]-4-chloro-2-phenyl-5H-imidazo[4,5-c]pyridine]",–,–,–,–,EC50 [2]: 1 µg/mL; CC50 at 72 hours [3]: 4 µg/mL
"c1ccc(-c2nc3ccn(CC4CCCCC4)cc-3n2)cc1 [GPJN-37, 5-(Cyclohexylmethyl)-2-phenyl-5H-imidazo[4,5-c]pyridine]",–,–,22 µg/mL,0.161 µg/mL,–
"Brc1cccc(-c2nc3ccn(CCOc4ccccc4)cc-3n2)c1 [GPJN-100, 2-(3-Bromophenyl)-5-(2-phenoxyethyl)-5H-imidazo[4,5-c]pyridine]",–,–,–,–,EC50 (BVDV-1 (strain PE515); [5]): 0.088 µg/mL; MTC (MDBK cells): 20 µg/mL
"c1ccc(-c2nc3ccn(Cc4ccccn4)cc-3n2)cc1 [GPJN-34, 2-Phenyl-5-(2-pyridinylmethyl)-5H-imidazo[4,5-c]pyridine]",–,–,> 100 µg/mL,0.865 µg/mL,–
"c1ccc(CCCCn2ccc3nc(-c4ccccc4)nc-3c2)cc1 [GPJN-27, 2-Phenyl-5-(4-phenylbutyl)-5H-imidazo[4,5-c]pyridine]",–,–,> 46 µg/mL,0.945 µg/mL,–
"Clc1ccc(Cn2ccc3nc(-c4ccccc4)nc-3c2)s1 [GPJN-25, 5-[(5-Chloro-2-thienyl)methyl]-2-phenyl-5H-imidazo[4,5-c]pyridine]",–,–,36 µg/mL,0.009 µg/mL,–
"c1ccc(CCCn2ccc3nc(-c4ccccc4)nc-3c2)cc1 [GPJN-14, 2-Phenyl-5-(3-phenylpropyl)-5H-imidazo[4,5-c]pyridine]",–,–,40 µg/mL,0.07 µg/mL,–
"CC(C)(C)c1ccc(Cn2ccc3nc(-c4ccccc4)nc-3c2)cc1 [GPJN-16, 5-[[4-(1,1-Dimethylethyl)phenyl]methyl]-2-phenyl-5H-imidazo[4,5-c]pyridine]",–,–,8.1 µg/mL,0.246 µg/mL,EC50 [2]: 1 µg/mL; CC50 at 72 hours [3]: 3 µg/mL
"Brc1ccc(Cn2ccc3nc(-c4cccs4)nc-3c2)cc1 [GPJN-53, 5-[(4-Bromophenyl)methyl]-2-(2-thienyl)-5H-imidazo[4,5-c]pyridine]",–,–,66 µg/mL,0.033 µg/mL,–
